For one compound, specific activity results are on record in article PMC7142710, “Identification of a Key Enzyme for the Hydrolysis of β-(1→3)-Xylosyl Linkage in Red Alga Dulse Xylooligosaccharide from Bifidobacterium Adolescentis” (Marine Drugs, 2020).

What all share (assay): HPLC-RI of hydrolysis products
Common to all, as to format: biochemical

In one test the target is T1, BAD0423 (Bifidobacterium adolescentis, UniProt A1A0H1).
T1 construct: gene BAD_0423; full length, N-terminal His-tag (pET28a), no signal peptide, E. coli BL21(DE3), TALON purified
T1 sequence (A1A0H1 1-564): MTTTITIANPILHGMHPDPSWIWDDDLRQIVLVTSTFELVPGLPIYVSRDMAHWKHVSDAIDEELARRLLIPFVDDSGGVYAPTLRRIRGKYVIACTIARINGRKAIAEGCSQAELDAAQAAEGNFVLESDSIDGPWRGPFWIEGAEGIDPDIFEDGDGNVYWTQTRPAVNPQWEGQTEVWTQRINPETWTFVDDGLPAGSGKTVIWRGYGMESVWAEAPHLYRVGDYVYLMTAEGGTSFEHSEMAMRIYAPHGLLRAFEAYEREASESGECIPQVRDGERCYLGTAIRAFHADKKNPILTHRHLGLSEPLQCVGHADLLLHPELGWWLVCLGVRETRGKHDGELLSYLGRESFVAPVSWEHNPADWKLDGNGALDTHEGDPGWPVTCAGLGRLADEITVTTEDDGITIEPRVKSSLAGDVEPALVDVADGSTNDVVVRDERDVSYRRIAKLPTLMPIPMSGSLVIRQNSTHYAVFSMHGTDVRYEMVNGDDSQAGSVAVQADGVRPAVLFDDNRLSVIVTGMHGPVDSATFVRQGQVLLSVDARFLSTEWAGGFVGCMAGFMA
To be noted: 10 mM substrate, 50 μg/mL enzyme, 20 mM sodium phosphate pH 6.5, 37 °C, 1 h; products xylose and xylobiose.

For another test, the target named is T2, BAD0428 (Bifidobacterium adolescentis, UniProt A1A0H6).
T2 construct: gene xynB; full length, N-terminal His-tag (pET28a), no signal peptide, E. coli BL21(DE3), TALON purified
T2 sequence (A1A0H6 1-543): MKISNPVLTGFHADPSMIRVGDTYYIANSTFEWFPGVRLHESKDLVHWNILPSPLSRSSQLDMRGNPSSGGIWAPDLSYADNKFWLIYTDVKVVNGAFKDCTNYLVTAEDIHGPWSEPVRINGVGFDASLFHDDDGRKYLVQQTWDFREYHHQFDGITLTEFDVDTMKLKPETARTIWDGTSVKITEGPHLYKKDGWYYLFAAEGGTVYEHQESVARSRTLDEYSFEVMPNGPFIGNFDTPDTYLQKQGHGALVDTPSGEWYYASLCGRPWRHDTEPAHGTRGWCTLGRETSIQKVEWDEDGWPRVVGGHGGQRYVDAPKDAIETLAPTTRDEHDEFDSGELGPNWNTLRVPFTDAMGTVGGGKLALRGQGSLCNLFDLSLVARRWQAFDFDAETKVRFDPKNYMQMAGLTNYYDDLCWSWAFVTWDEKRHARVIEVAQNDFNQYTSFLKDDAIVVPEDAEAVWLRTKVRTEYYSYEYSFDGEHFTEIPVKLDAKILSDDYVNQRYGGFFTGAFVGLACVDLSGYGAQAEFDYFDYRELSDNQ
The settings on record: 10 mM substrate, 50 μg/mL enzyme, 20 mM sodium phosphate pH 6.5, 37 °C, 1 h; product xylose.

Another test deals with T3, BAD1527 (Bifidobacterium adolescentis, UniProt A1A3M5).
T3 construct: gene xynD; full length, N-terminal His-tag (pET28a), no signal peptide, E. coli BL21(DE3), TALON purified
T3 sequence (A1A3M5 1-345): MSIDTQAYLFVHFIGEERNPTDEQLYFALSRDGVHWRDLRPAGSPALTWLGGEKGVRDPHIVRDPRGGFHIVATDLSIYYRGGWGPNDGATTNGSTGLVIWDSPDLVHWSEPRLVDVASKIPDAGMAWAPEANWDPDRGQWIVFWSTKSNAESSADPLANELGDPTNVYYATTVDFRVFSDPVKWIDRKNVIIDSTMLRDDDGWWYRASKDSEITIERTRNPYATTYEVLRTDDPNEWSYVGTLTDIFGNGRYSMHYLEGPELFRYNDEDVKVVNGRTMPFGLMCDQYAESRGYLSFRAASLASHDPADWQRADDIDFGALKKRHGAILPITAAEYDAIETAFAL
The settings on record: 10 mM substrate, 50 μg/mL enzyme, 20 mM sodium phosphate pH 6.5, 37 °C, 1 h; weak substrate.

Turning to `OC1OC[C@@H](O[C@@H]2OC[C@@H](O)[C@H](O[C@@H]3OC[C@@H](O)[C@H](O)[C@H]3O)[C@H]2O)[C@H](O)[C@H]1O` (stereo partly drawn) [DX3, 2^3-β-D-xylosyl-xylobiose], the specific activity entry at BAD0423 is “BAD0423 showed low activities on X2 and X3 but high activity on DX3”; at BAD0428, “specific activity of BAD0423, BAD0428, and BAD1527 on DX3 was determined by HPLC”; at BAD1527 it was “specific activity of BAD0423, BAD0428, and BAD1527 on DX3 was determined by HPLC”.
